# Measured values taken from patent US20260297136A1, “PEPTIDES WITH LIPOLYTIC, ANTI-LIPOGENIC, ANTIFIBROTIC AND ANTI-INFLAMMATORY ACTIVITY” (FUNDACIÓ HOSPITAL UNIVERSITARI VALL D'HEBRON - INSTITUT DE …, priority 2023, published 2026).
# Tests used:
# [1] = tested on: CCl4-induced fibrosis mouse model; test: Preventive effects in a CCl4-induced fibrosis mouse model, Example 5; format: in vivo, C57BL6/J male mice; conditions: 20 mg/kg/day sc, vs vehicle
# Description: C57BL6/J male mice were purchased and kept for quarantine and acclimatization for a period of about 7 days before initiation of every experiment. Mice were housed in clean and sterilized mice cages and maintained in a controlled environment with 22+3° C. temperature, 50+20% humidity, a light/dark cycle of 12 hours each and 15-20 fresh air changes per hour.
# Preventive effect of a daily subcutaneous injection of GP6 (20 mg/kg/day) in a mouse model of fibrosis induced by twice a week intraperitoneal injection of CCl4 (1 ml/Kg diluted in olive oil 1:5) during a 4 weeks period. A group of control mice (n=6) was treated with daily subcutaneous injections of vehicle (water) and the other group (n=10) with daily subcutaneous injection of GP6 (20 mg/kg/day) during 10 weeks.
# At the end of the experiment mice were sacrificed, serum samples were extracted, tissues were weighted and part was fixed in paraformaldehyde for histology studies and part immediately frozen at −80 C for mRNA and protein expression studies.
# The Histology studies, AST and ALT measurements as well the RNA analysis were performed as described in example 4.
# HepG2 cells = test: Hepatic lipogenic key enzymes in HepG2 cells in the presence of 30 mM fructose (2 h), Example 7; format: cell-based, human; conditions: 40 μg/ml
# Description: FIG. 34. Effects of different peptides and SHBG in reducing hepatic lipogenic key enzymes in the presence of 30 mM fructose. Each bar within each group represents mRNA levels of a key hepatic lipogenic enzyme, from left to right: Acetyl-CoA Carboxylase (ACC), ATP Citrate Lyase (ACLY) and Fatty Acid Synthase (FAS), and a key transcription factor regulating several lipogenic enzymes such as PPARγ (PPARγ).
# Cell culture reagents were from Life Technologies Inc (Invitrogen SA, Barcelona, Spain). HepG2 hepatoblastoma cells (cat. no. HB-8065; ATCC, LGC Standards SLU, Barcelona, Spain) were maintained in Dulbecco's modified Eagle medium (DMEM) supplemented with 10% fetal bovine serum and antibiotics.
# • HepG2 cells were cultured for 5 day in the absence or presence of 30 mM fructose. Cells cultured in 30 mM fructose were daily treated with vehicle, Telmisartan, Semaglutide or EDL6D. • HepG2 cells were cultured for 24 h in the absence or presence of GP6 (40 μg/ml), GP10 (40 μg/ml), GP11 (40 μg/ml), GP12 (40 μg/ml), GP13 (40 μg/ml) or SHBG (20 nM). • HepG2 cells were cultured in the absence or presence of 30 mM fructose and treated for 2 h with vehicle or GP4 (40 μg/ml), GP6 (40 μg/ml), GP7 (40 μg/ml), GP8 (40 μg/ml), GP9 (40 μg/ml), GP10 (40 μg/ml), GP11 (40 μg/ml), GP12 (40 μg/ml), GP13 (40 μg/ml) or SHBG (20 nM).
# (§1) Total RNA was extracted from HepG2 and LX-2 cells using TRIzol reagent (Invitrogen SA). Reverse transcription was performed at 42° C. for 50 minutes using […] of total RNA, 200 U of Superscript II, and an oligo-dT primer and reagents provided by Invitrogen. An aliquot of the reverse transcription product was amplified in a […] reaction using SYBRGreen (Invitrogen SA) with appropriate oligonucleotide primer pairs corresponding to human SHBG, ACC, FAS, ACLY, PPARG, and 18S and mouse ACC, FAS, ACLY, PPARG, Col1A1 and 18S. Results were analyzed using the 7000 Sequence Detection System program (Applied Biosystems, Thermo Fisher Scientific, Barcelona, Spain) (Shez-Lopez et al Endocrinology 2017).
# LX-2 cells [2] = test: Fibrosis in LX-2 cells: Col1A1 mRNA induced by TGFβ1, Example 7; format: cell-based, human; conditions: 24 h
# Description: FIG. 33. Effect of different peptides and SHBG on fibrosis in LX-2 cells.
# LX-2 human hepatic stellate cells (SCC064) were maintained in DMEM supplemented with 2% fetal bovine serum and antibiotics. For experiments, LX-2 were cultured for 24 h in DMEM 0.2% FBS and treated for 24 h with vehicle or TGFβ1 (20 ng/ml) in the absence or presence of EDL6D (10 or 40 μg/ml). At the end of the experiment's cells were harvested for gene expression analysis.
# as §1
# LX-2 cells [3] = test: Fibrosis in LX-2 cells: Col1A1 mRNA induced by TGFβ1, Example 3; format: cell-based, human; conditions: 24 h
# Description: FIG. 3 Human hepatic stellate cell line LX-2 was treated with vehicle (DMSO) or TGFβ1 (10 ng/ml) in the absence or presence of GP6 (10 or 40 μg/ml) for 24 h. RNA was extracted and mRNA levels of collagen 1A1 (Col1A1) relative to 18S were measured by RTPCR.
# Cell culture reagents were from Life Technologies Inc (Invitrogen SA, Barcelona, Spain). HepG2 hepatoblastoma cells (cat. no. HB-8065; ATCC, LGC Standards SLU, Barcelona, Spain) were maintained in Dulbecco's modified Eagle medium (DMEM) supplemented with 10% fetal bovine serum and antibiotics. HepG2 cells were cultured for 5 day in the absence or presence of 30 mM fructose. Cells cultured in 30 mM fructose were daily treated with vehicle, Telmisartan, Semaglutide or GP6. LX-2 human hepatic stellate cells (SCC064) were maintained in DMEM supplemented with 2% fetal bovine serum and antibiotics. […]
# Total RNA was extracted from HepG2 and LX-2 cells using TRIzol reagent (Invitrogen SA). […] Results were analyzed using the 7000 Sequence Detection System program (Applied Biosystems, Thermo Fisher Scientific, Barcelona, Spain) (Sex Hormone-Binding Globulin Reduction in Metabolic Disorders May Play a Role in NAFLD Development.Saez-Lopez C, Barbosa-Desongles A, Hernandez C, Dyer R A, Innis S M, Simo R, Selva D M. Endocrinology. 2017 Mar. 1; 158(3):545-559. doi: 10.1210/en.2016-1668).
compound,measurement,setting,value
CC[C@@H](C)[C@@H](NC(=O)[C@H](NC(=O)CNC(=O)[C@@H](CCC(=O)O)NC(=O)[C@H]1CCCN1C(=O)[C@@H](CC(=O)O)NC(=O)[C@@H](Cc1c[nH]c2ccccc12)NC(=O)[C@H](NC(=O)[C@@H](CCCNC(=N)N)NC(=O)[C@H](NC(=O)[C@@H](CCC(=O)O)NC(=O)[C@@H](Cc1ccccc1)NC(=O)[C@@H](CO)NC(=O)[C@@H](CO)NC(=O)[C@@H](CO)NC(=O)[C@H](NC(=O)[C@@H](CCCCN)NC(=O)[C@H](N)[C@H](C)O)[C@H](C)O)C(C)C)[C@H](C)O)C(C)C)C(=O)N[C@H](Cc1ccccc1)C(=O)N[C@H](Cc1ccc(O)cc1)C(=O)O [GP6],liver weight,[1],did not show any significance between groups
same,reduction of ALT serum levels,[1],~50%
same,reduction of Collagen (Col1A1) expression in hepatic tissue,[1],more than 50%
same,"reduction of hepatic fibrosis (picrosirius staining, ImageJ)",[1],approximately 37%
same,reduction of hepatic inflammation (F4/80 mRNA levels),[1],more than 50%
same,total body weight lost induced by CCl4,[1],mice treated with vehicle lost more body weight when compared with GP6 treated mice
same,fructose-induced expression of ACC,HepG2 cells,able to reduce
same,fructose-induced expression of ACLY,HepG2 cells,able to reduce
same,fructose-induced expression of FAS,HepG2 cells,able to reduce
same,fructose-induced expression of PPARγ,HepG2 cells,able to reduce
same,mRNA levels of collagen 1A1 induced by TGFβ1,LX-2 cells [2],reduced the mRNA levels
same,reduction of mRNA levels of collagen 1A1 induced by TGFβ1,LX-2 cells [3]; 10 μg/ml,28%
same,reduction of mRNA levels of collagen 1A1 induced by TGFβ1,LX-2 cells [3]; 40 μg/ml,45%
